Laboratory results reported in publication PMC13266999, “Designing Antibiotics with Inherent Resistance to Efflux as a Strategy to Revive Discovery against Multidrug-Resistant Pathogens” (Journal of Medicinal Chemistry, 2026).
In brackets after ≈: the same amount, converted by molar mass. Like-named read-outs stand apart in the source and are kept apart here.

Legend:
A. baumannii strain AYE = test: Time-kill assay; assay type: cell-based; details: 4 × MIC
Method: Time-kill assays were performed as defined previously.

S. haemolyticus = test: MIC (microbroth dilution); assay type: cell-based, Staphylococcus haemolyticus; details: Staphylococcus haemolyticus, ATCC29970; ATCC 29970; read-out: MIC
Method: (§1) All bacteria were maintained on tryptic soy agar (TSA), except Streptococcus spp., which were maintained on Columbia agar plates containing 5% horse blood. All bacterial assays were carried out in tryptic soy broth (TSB), except for Streptococcus spp. which were grown in cation-adjusted Mueller Hinton broth containing 2.5% lysed horse blood. Bacteria were grown to stationary phase in liquid culture overnight, with shaking at 200 rpm, before being back diluted to the relevant starting concentration for each assay below. MICs were measured by the microbroth dilution method. […] Absorbance at OD600 was read on a CLARIOstar spectrophotometer (BMG Labtech) and the MIC was defined as the minimum concentration of compound where no visible growth was detected. The compounds were prepared as a DMSO stock and equivalent concentrations of DMSO had no effect on bacterial growth. MICs were also performed in the presence of the outer membrane permeator, polymyxin b nonapeptide (PMBN) following the same MIC method but with the following variation. The 2-fold dilution series of compound was prepared as above, then 50 μL of PMBN at a final concentration of 30 μg/mL was added to relevant wells, while 50 μL/well of blank media was added to the remaining wells. Bacteria were then added at 50 μL/well for a starting concentration as above. Thirty μg/mL of PMBN had no effect on bacterial growth. The MICs were read and defined as above. All animal procedures were performed by the contract research organization Pharmacology Discovery Services Taiwan in accordance with the Guide for the Care and Use of Laboratory Animals. The procedures were approved by the Institutional Ethics Committee of Pharmacology Discovery Services Taiwan, Ltd. (approval no. AB127662), in compliance with animal welfare legislation in Taiwan.

[1] = system: S. oralis, S. mutans, S. salivarius, S. sanguinis, and S. pyogenes; test: MIC, extended Gram-positive panel (grouped species); assay type: cell-based, Streptococcus spp.
Method: as §1, with “Thirty μg/mL of PMBN had no effect on bacterial growth.” left out, “All animal procedures were performed by the contract research organization Pharmacology Discovery Services Taiwan in accordance with the Guide for the Care and Use of Laboratory Animals. The procedures were approved by the Institutional Ethics Committee of Pharmacology Discovery Services Taiwan, Ltd. (approval no. AB127662), in compliance with animal welfare legislation in Taiwan.” left out

E. faecium = test: MIC (microbroth dilution); assay type: cell-based, Enterococcus faecium; details: for MIC: Enterococcus faecium
Method: as §1

Enterococcus gallinarum = test: MIC (microbroth dilution); assay type: cell-based; details: VanC (ATCC 49608)
Summary of the method: (§2)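 Broth microdilution MICs were run in tryptic soy broth, or for Streptococcus spp. in cation-adjusted Mueller Hinton broth with 2.5% lysed horse blood, using overnight stationary-phase cultures back-diluted. MIC was the lowest concentration with no visible growth, with OD600 also read. Some MICs included PMBN at 30 μg/mL final.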

[2] = system: Staphylococcus saprophyticus; test: MIC (microbroth dilution); assay type: cell-based; details: ATCC15305, ATCC 15305
Summary of the method: as §2

Streptococcus oralis = test: MIC (microbroth dilution); assay type: cell-based; details: ATCC9811, ATCC 9811
Summary of the method: as §2

[3] = system: Streptococcus intermedius; test: MIC (microbroth dilution); assay type: cell-based; details: ATCC29663, ATCC 29663
Summary of the method: as §2

Streptococcus mutans = test: MIC (microbroth dilution); assay type: cell-based; details: ATCC25175, ATCC 25175
Summary of the method: as §2

Streptococcus pneumoniae = test: MIC (microbroth dilution); assay type: cell-based; details: for MIC: Streptococcus pneumoniae
Summary of the method: as §2

Streptococcus sanguinis = test: MIC (microbroth dilution); assay type: cell-based; details: ATCC10556, ATCC 10556
Summary of the method: as §2

Streptococcus salivarius = test: MIC (microbroth dilution); assay type: cell-based; details: ATCC13419, ATCC 13419
Summary of the method: as §2

[4] = reported values; cited from earlier work

Q: For `C[C@H]1COc2c(N3CC[C@@H](Nc4ncccn4)C3)c(F)cc3c(=O)c(C(=O)O)cn1c23` [Compound 46, (S)-9-Fluoro-3-methyl-7-oxo-10-((R)-3-(pyrimidin-2-ylamino)pyrrolidin-1-yl)-2,3-dihydro-7H-[1,4]oxazino[2,3,4-ij]quinoline-6-carboxylic acid], which time-kill profile (A. baumannii strain AYE) is on record?
A: rapid bactericidal activity

Q: Which results are given for `Cc1cc(C)nc(N[C@@H]2CCN(c3c(F)cc4c(=O)c(C(=O)O)cn5c4c3OC[C@@H]5C)C2)n1` [Compound 50, (S)-10-((R)-3-((4,6-Dimethylpyrimidin-2-yl)amino)pyrrolidin-1-yl)-9-fluoro-3-methyl-7-oxo-2,3-dihydro-7H-[1,4]oxazino[2,3,4-ij]quinoline-6-carboxylic acid]?
A: MIC (S. haemolyticus): 0.03 µg/mL (≈ 0.0662 µM); MIC range [1]: 0.03 to 0.25 µg/mL; MIC (E. faecium; ATCC19434, ATCC 19434, read-out: MIC): 1 µg/mL (≈ 2.21 µM); MIC (E. faecium; ATCC700221, VanA (ATCC 700221), read-out: MIC): 0.5 µg/mL (≈ 1.1 µM); MIC (E. faecium; BAA2320, VanA (BAA-2320), read-out: MIC): 1 µg/mL (≈ 2.21 µM); MIC (E. faecium; CCUG56431, VanB (CCUG 56431), read-out: MIC): 0.25 µg/mL (≈ 0.551 µM); MIC (E. faecium; CCUG56858): 0.125 µg/mL (≈ 0.276 µM); MIC (E. faecium; CCUG58354, VanD (CCUG 58354), read-out: MIC): 0.25 µg/mL (≈ 0.551 µM); MIC (E. faecium; CCUG59167, VanA (TUH44-29; CCUG 59167), read-out: MIC): 1 µg/mL (≈ 2.21 µM); MIC range (E. faecium; including VanA, VanB, and VanD phenotypes): 0.125 to 1 µg/mL; MIC (Enterococcus gallinarum; Enterococcus gallinarum, ATCC 49608 / GALLINARUM, read-out: MIC): 0.25 µg/mL (≈ 0.551 µM); MIC (Enterococcus gallinarum): 0.25 µg/mL (≈ 0.551 µM); MIC [2]: 0.06 µg/mL (≈ 0.132 µM); MIC (Streptococcus oralis): 0.25 µg/mL (≈ 0.551 µM); MIC [3]: 0.03 µg/mL (≈ 0.0662 µM); MIC (Streptococcus mutans): 0.03 µg/mL (≈ 0.0662 µM); MIC (Streptococcus pneumoniae; ATCC6301): 0.125 µg/mL (≈ 0.276 µM); MIC (Streptococcus pneumoniae; ATCC49619): 0.125 µg/mL (≈ 0.276 µM); MIC (Streptococcus pneumoniae; ATCC51916): 0.125 µg/mL (≈ 0.276 µM); MIC (Streptococcus pneumoniae; ATCC700669, ST 23F (ATCC 700669), read-out: MIC): 0.06 µg/mL (≈ 0.132 µM); MIC (Streptococcus pneumoniae; ATCC700673, MDR (ATCC 700673), read-out: MIC): 0.06 µg/mL (≈ 0.132 µM); MIC (Streptococcus pneumoniae; ATCC700675, ATCC 700675, read-out: MIC): 0.06 µg/mL (≈ 0.132 µM); MIC (Streptococcus pneumoniae; ATCC700676): 0.125 µg/mL (≈ 0.276 µM); MIC (Streptococcus pneumoniae; ATCC 700677 / PRSP, PRSP (ATCC 700677), read-out: MIC): 0.06 µg/mL (≈ 0.132 µM); MIC (Streptococcus pneumoniae; PRSP (TM532), read-out: MIC): 0.06 µg/mL (≈ 0.132 µM); MIC range (Streptococcus pneumoniae; including MDR and PRSP strains): 0.06 to 0.125 µg/mL; MIC (Streptococcus sanguinis): 0.25 µg/mL (≈ 0.551 µM); MIC (Streptococcus salivarius): 0.25 µg/mL (≈ 0.551 µM)

Q: For `C[C@H]1COc2c(N3CCN(C)CC3)c(F)cc3c(=O)c(C(=O)O)cn1c23` [Levofloxacin, (S)-9-Fluoro-3-methyl-10-(4-methylpiperazin-1-yl)-7-oxo-2,3-dihydro-7H-[1,4]oxazino[2,3,4-ij]quinoline-6-carboxylic acid, reference compound], which plasma protein binding [4] is on record?
A: 38%
